Consider 25 molecules from patent US20100272680A1, “Piperidinyl Cyclic Amido Antiviral Agents” (priority 2009, published 2010).

One test concerns HCV Genotype 1A Replicon. Put plainly: Replicon assay, genotype 1a subgenomic replicon, luciferase readout. The class given is cell-based. The settings on record: Hepatitis C virus, 48 h, Table 3; luciferase activity after 48 hours. A digest of the protocol:
(§1)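 EC50 values came from four-parameter logistic fits of 10-point dose responses (3–4-fold steps, final 0.03–50 μM, 0.5–1% DMSO), normalized against no-compound and no-cell controls. Firefly luciferase was read 48 h after plating 0.5×10^4 replicon cells/well, 1b ET or 1a Apath-derived line.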
In general terms: A replicon is a self-replicating genome or part of one, used to study replication in cells.

The test system of the next test is HCV Genotype 1B Replicon. Description: Replicon assay, genotype 1b subgenomic replicon (ET cell line), luciferase readout. Format: cell-based. Conditions: Hepatitis C virus, 48 h, Table 3; luciferase activity after 48 hours. A digest of the protocol:
as §1

As usually defined, the EC50 is the concentration needed to bring the measured effect to its halfway point. A lower EC50 goes with greater potency. As to `CC1(C)CN(C2CCN(C(=O)c3nc4c(C(F)(F)F)cc(-c5ccoc5)cn4c3Cl)CC2)C(=O)O1` [Compound 181, 3-(1-{[3-chloro-6-(3-furanyl)-8-(trifluoromethyl)imidazo[1,2-a]pyridin-2-yl]carbonyl}-4-piperidinyl)-5,5-dimethyl-1,3-oxazolidin-2-one], the concentration for a half-maximal effect (EC50) stood at 6530 nM in the test on HCV Genotype 1A Replicon and 7080 nM in the test on HCV Genotype 1B Replicon.
Take `C[C@@H]1COC(=O)N1C1CCN(C(=O)c2nc3c(C(F)(F)F)cc(-c4ccoc4)cn3c2Cl)CC1` [Compound 182, (4R)-3-(1-{[3-chloro-6-(3-furanyl)-8-(trifluoromethyl)imidazo[1,2-a]pyridin-2-yl]carbonyl}-4-piperidinyl)-4-methyl-1,3-oxazolidin-2-one]: the EC50 in the test with HCV Genotype 1A Replicon came to 130 nM; in the test on HCV Genotype 1B Replicon, 660 nM.
`CC1(N2CCOC2=O)CCN(C(=O)c2nc3c(C(F)(F)F)cc(-c4ccoc4)cn3c2Cl)CC1` [Compound 183, 3-(1-{[3-chloro-6-(3-furanyl)-8-(trifluoromethyl)imidazo[1,2-a]pyridin-2-yl]carbonyl}-4-methyl-4-piperidinyl)-1,3-oxazolidin-2-one]: the results for the EC50 with HCV Genotype 1A Replicon and in the test on HCV Genotype 1B Replicon were not below 5010 nM and 4470 nM, respectively.
As for `C[C@H]1CN(C2CCN(C(=O)c3nc4c(C(F)(F)F)cc(-c5ccoc5)cn4c3Cl)CC2)C(=O)O1` [Compound 184, (5S)-3-(1-{[3-chloro-6-(3-furanyl)-8-(trifluoromethyl)imidazo[1,2-a]pyridin-2-yl]carbonyl}-4-piperidinyl)-5-methyl-1,3-oxazolidin-2-one], the values for the EC50 in the test with HCV Genotype 1A Replicon and in the test with HCV Genotype 1B Replicon were 220 nM and 80 nM, respectively.
Consider `C[C@@H]1CN(C2CCN(C(=O)c3nc4c(C(F)(F)F)cc(-c5ccoc5)cn4c3Cl)CC2)C(=O)O1` [Compound 185, (5R)-3-(1-{[3-chloro-6-(3-furanyl)-8-(trifluoromethyl)imidazo[1,2-a]pyridin-2-yl]carbonyl}-4-piperidinyl)-5-methyl-1,3-oxazolidin-2-one], for which the EC50 in the test on HCV Genotype 1A Replicon turned out to be 1480 nM; in the test with HCV Genotype 1B Replicon it was 1550 nM.
`O=C(c1nc2c(C(F)(F)F)cc(-c3ccoc3)cn2c1Cl)N1CCC(n2ccoc2=O)CC1` [Compound 186, 3-(1-{[3-chloro-6-(3-furanyl)-8-(trifluoromethyl)imidazo[1,2-a]pyridin-2-yl]carbonyl}-4-piperidinyl)-1,3-oxazol-2(3H)-one]: the EC50 with HCV Genotype 1A Replicon was 10 nM; in the test with HCV Genotype 1B Replicon, 20 nM.
The like results for `Nc1cc(C(F)(F)F)c2nc(C(=O)N3CCC(N4CCOC4=O)CC3)c(Cl)n2c1` [Compound 187, 3-(1-{[6-amino-3-chloro-8-(trifluoromethyl)imidazo[1,2-a]pyridin-2-yl]carbonyl}-4-piperidinyl)-1,3-oxazolidin-2-one] were, in that order, 4680 nM and 1620 nM.
For the molecule `C[C@@H]1OC(=O)N(C2CCN(C(=O)c3nc4c(C(F)(F)F)cc(-c5ccoc5)cn4c3Cl)CC2)C1=O` [Compound 188, (5S)-3-(1-{[3-chloro-6-(3-furanyl)-8-(trifluoromethyl)imidazo[1,2-a]pyridin-2-yl]carbonyl}-4-piperidinyl)-5-methyl-1,3-oxazolidine-2,4-dione], the EC50 with HCV Genotype 1A Replicon was 190 nM; in the test with HCV Genotype 1B Replicon, 60 nM.
On to `C[C@@H]1OC(=O)N(C2CCN(C(=O)c3nc4c(C(F)(F)F)cc(C5CC5)cn4c3Cl)CC2)C1=O` [Compound 189, (5S)-3-(1-{[3-chloro-6-cyclopropyl-8-(trifluoromethyl)imidazo[1,2-a]pyridin-2-yl]carbonyl}-4-piperidinyl)-5-methyl-1,3-oxazolidine-2,4-dione], for which the EC50 with HCV Genotype 1A Replicon is 220 nM; in the test with HCV Genotype 1B Replicon, 30 nM.
In the case of `C[C@@H]1OC(=O)N(C2CCN(C(=O)c3nc4c(C(F)(F)F)cc(Br)cn4c3Cl)CC2)C1=O` [Compound 190, (5S)-3-(1-{[6-bromo-3-chloro-8-(trifluoromethyl)imidazo[1,2-a]pyridin-2-yl]carbonyl}-4-piperidinyl)-5-methyl-1,3-oxazolidine-2,4-dione], the EC50 was 1500 nM with HCV Genotype 1A Replicon and 70 nM with HCV Genotype 1B Replicon.
In the case of `C[C@H]1OC(=O)N(C2CCN(C(=O)c3nc4c(C(F)(F)F)cc(-c5ccoc5)cn4c3Cl)CC2)C1=O` [Compound 191, (5R)-3-(1-{[3-chloro-6-(3-furanyl)-8-(trifluoromethyl)imidazo[1,2-a]pyridin-2-yl]carbonyl}-4-piperidinyl)-5-methyl-1,3-oxazolidine-2,4-dione], the EC50 amounted to 210 nM in the test on HCV Genotype 1A Replicon and 40 nM with HCV Genotype 1B Replicon.
Turning to `C[C@H]1OC(=O)N(C2CCN(C(=O)c3nc4c(C(F)(F)F)cc(C5CC5)cn4c3Cl)CC2)C1=O` [Compound 192, (5R)-3-(1-{[3-chloro-6-cyclopropyl-8-(trifluoromethyl)imidazo[1,2-a]pyridin-2-yl]carbonyl}-4-piperidinyl)-5-methyl-1,3-oxazolidine-2,4-dione], the EC50 turned out to be 280 nM with HCV Genotype 1A Replicon and 20 nM with HCV Genotype 1B Replicon.
The like results for `C[C@H]1OC(=O)N(C2CCN(C(=O)c3nc4c(C(F)(F)F)cc(Br)cn4c3Cl)CC2)C1=O` [Compound 193, (5R)-3-(1-{[6-bromo-3-chloro-8-(trifluoromethyl)imidazo[1,2-a]pyridin-2-yl]carbonyl}-4-piperidinyl)-5-methyl-1,3-oxazolidine-2,4-dione] were, in that order, 770 nM and 90 nM.
As to `O=C(c1nc2c(C(F)(F)F)cc(I)cn2c1Br)N1CCC(N2CCOC2=O)CC1` [Compound 194, 3-(1-{[3-bromo-6-iodo-8-(trifluoromethyl)imidazo[1,2-a]pyridin-2-yl]carbonyl}-4-piperidinyl)-1,3-oxazolidin-2-one], the EC50 in the test with HCV Genotype 1A Replicon and with HCV Genotype 1B Replicon was 30 nM in each case.
For `O=C(c1nc2c(C(F)(F)F)cc(I)cn2c1Br)N1CCC(N2C(=O)COC2=O)CC1` [Compound 195, 3-(1-{[3-bromo-6-iodo-8-(trifluoromethyl)imidazo[1,2-a]pyridin-2-yl]carbonyl}-4-piperidinyl)-1,3-oxazolidine-2,4-dione], the EC50 came out at 50 nM in the test on HCV Genotype 1A Replicon and 30 nM with HCV Genotype 1B Replicon.
As for `CC(C)c1cc(C(F)(F)F)c2nc(C(=O)N3CCC(N4CCOC4=O)CC3)cn2c1` [Compound 196, 3-(1-{[6-(1-methylethyl)-8-(trifluoromethyl)imidazo[1,2-a]pyridin-2-yl]carbonyl}-4-piperidinyl)-1,3-oxazolidin-2-one], the concentration for a half-maximal effect (EC50) in the test with HCV Genotype 1A Replicon stood at 1190 nM; in the test with HCV Genotype 1B Replicon, 960 nM.
For `O=C(c1nc2c(C(F)(F)F)cc(C3CC3)cn2c1Br)N1CCC(N2CCOC2=O)CC1` [Compound 197, 3-(1-{[3-bromo-6-cyclopropyl-8-(trifluoromethyl)imidazo[1,2-a]pyridin-2-yl]carbonyl}-4-piperidinyl)-1,3-oxazolidin-2-one], the EC50 with HCV Genotype 1A Replicon and in the test on HCV Genotype 1B Replicon was 10 nM each time.
On to `CC(=O)Nc1cc(C(F)(F)F)c2nc(C(=O)N3CCC(N4CCOC4=O)CC3)c(Cl)n2c1` [Compound 198, N-[3-chloro-2-{[4-(2-oxo-1,3-oxazolidin-3-yl)-1-piperidinyl]carbonyl}-8-(trifluoromethyl)imidazo[1,2-a]pyridin-6-yl]acetamide], for which the EC50 with HCV Genotype 1A Replicon and with HCV Genotype 1B Replicon was not below 5010 nM in each case.
As for `O=C(c1nc2c(C(F)(F)F)cc(-c3ccoc3)cn2c1Cl)N1CCC(n2cn[nH]c2=O)CC1` [Compound 199, 4-(1-{[3-chloro-6-(3-furanyl)-8-(trifluoromethyl)imidazo[1,2-a]pyridin-2-yl]carbonyl}-4-piperidinyl)-2,4-dihydro-3H-1,2,4-triazol-3-one], the figures for the EC50 with HCV Genotype 1A Replicon and in the test on HCV Genotype 1B Replicon were 4790 nM and 5370 nM, respectively.
With `O=C(c1nc2c(C(F)(F)F)cc(C3CC3)cn2c1Cl)N1CCC(N2C(=O)CCC2=O)CC1` [Compound 200, 1-(1-{[3-chloro-6-cyclopropyl-8-(trifluoromethyl)imidazo[1,2-a]pyridin-2-yl]carbonyl}-4-piperidinyl)-2,5-pyrrolidinedione], the EC50 with HCV Genotype 1A Replicon stood at 170 nM; in the test with HCV Genotype 1B Replicon it was 30 nM.
Take `O=C(c1nc2c(C(F)(F)F)cc(C3CC3)cn2c1Cl)N1CCC(N2CCCC2=O)CC1` [Compound 201, 1-(1-{[3-chloro-6-cyclopropyl-8-(trifluoromethyl)imidazo[1,2-a]pyridin-2-yl]carbonyl}-4-piperidinyl)-2-pyrrolidinone]: the EC50 in the test with HCV Genotype 1A Replicon was found to be 100 nM; in the test on HCV Genotype 1B Replicon it was 30 nM.
On to `O=C(c1nc2c(C(F)(F)F)cc(C3CC3)cn2c1Cl)N1CCC(N2C(=O)COC2=O)CC1` [Compound 202, 3-(1-{[3-chloro-6-cyclopropyl-8-(trifluoromethyl)imidazo[1,2-a]pyridin-2-yl]carbonyl}-4-piperidinyl)-1,3-oxazolidine-2,4-dione], for which the values for the EC50 in the test on HCV Genotype 1A Replicon and in the test on HCV Genotype 1B Replicon were 20 nM and 10 nM, respectively.
For the molecule `O=C(c1cn2cc(-c3ccoc3)cc(C(F)(F)F)c2n1)N1CCC(N2CCOC2=O)CC1` [Compound 203, 3-(1-{[6-(3-furanyl)-8-(trifluoromethyl)imidazo[1,2-a]pyridin-2-yl]carbonyl}-4-piperidinyl)-1,3-oxazolidin-2-one], the results for the EC50 in the test with HCV Genotype 1A Replicon and in the test with HCV Genotype 1B Replicon were 320 nM and 2340 nM, respectively.
Taken in the same sequence, the figures for `CC1(C)CN(C(=O)c2nc3c(C(F)(F)F)cc(-c4ccoc4)cn3c2Cl)CCC1N1CCOC1=O` (centres unmarked) [Compound 204, 3-(1-{[3-chloro-6-(3-furanyl)-8-(trifluoromethyl)imidazo[1,2-a]pyridin-2-yl]carbonyl}-3,3-dimethyl-4-piperidinyl)-1,3-oxazolidin-2-one] were 40 nM and 300 nM.
In the case of `CC1(C)CC(N2CCOC2=O)CCN1C(=O)c1nc2c(C(F)(F)F)cc(-c3ccoc3)cn2c1Cl` (centres unmarked) [Compound 211, 3-(1-{[3-chloro-6-(3-furanyl)-8-(trifluoromethyl)imidazo[1,2-a]pyridin-2-yl]carbonyl}-2,2-dimethyl-4-piperidinyl)-1,3-oxazolidin-2-one], the concentration giving a half-maximal response (EC50) is 580 nM with HCV Genotype 1A Replicon and 340 nM in the test on HCV Genotype 1B Replicon.
